Patent US12059472B2 (Bayer Aktiengesellschaft, priority 2016, dated 2024)

What was measured:
[1] = test system: NCI-H292: human mucoepidermoid lung carcinoma cells; assay: Cytotoxic effect on NCI-H292 cells (MTT/CTG assay); assay type: cell-based; settings: Table 2, active metabolites, MTT
Method: (§1) The cells were cultivated by the standard method as stated by the American Tissue Culture Collection (ATCC) or the Leibniz-Institut DSMZ-Deutsche Sammlung von Mikroorganismen und Zellkulturen GmbH (DSMZ) for the cell lines in question.
The cells were then incubated in an incubator at 37° C. and 5% carbon dioxide.
(§2) The cells were then incubated in an incubator at 37° C. and 5% carbon dioxide. After 48 h, the medium was replaced. […] To this end, the MTT reagent was incubated with the cells for 4 h, followed by lysis of the cells overnight by addition of the detergent. The dye formed was detected at 570 nm (Infinite M1000 pro, Tecan).

[2] = test system: SK-HEP-1: human liver cell cancer line; assay: Cytotoxic effect on SK-HEP-1 cells (MTT assay); assay type: cell-based; settings: SK-HEP1, Table 2, active metabolites
Method: as §1
as §2, with “Tecan). The measured data were used to calculate the IC50 of the growth inhibition using the DRC (dose response curve). The proliferation of cells which were not treated with test substance but were otherwise identically treated was defined as the 100% figure.” for “Tecan).”

[3] = test system: KPL4: human breast cancer cell line; assay: Cytotoxic effect on KPL4 cells (MTT assay); assay type: cell-based; settings: Table 2, active metabolites
Method: The analysis of the cytotoxic effects of the ADCs was carried out with various cell lines: • NCI-H292: human mucoepidermoid lung carcinoma cells, ATCC-CRL-1848, standard medium: RPMI 1640 (Biochrom; #FG1215, stab. glutamine)+10% FCS (Sigma; #F2442), TWEAKR-positive; EGFR-positive. • BxPC3: human pancreas carcinoma cells, ATCC-CRL-1687, standard medium: RPMI 1640 (Biochrom; #FG1215, stab. glutamine)+10% FCS (Sigma; #F2442), TWEAKR-positive. • LoVo human colorectal cancer cells, ATCC No. CCL-229, cultivation for MTT assay: standard medium: Kaighn's+L-glutamine (Invitrogen 21127)+10% heat inactivated FCS (from Gibco, No. 10500-064). Cultivation for CTG assay: RPMI 1640 (Biochrom; #FG1215, stab. glutamine)+10% FCS (Sigma #F2442). […]
The cells were cultivated by the standard method, with the growth media specified under C-1a. […] After 96 h, the cell proliferation was detected using the MTT assay (ATCC, Manassas, Virginia, USA, catalogue No. 30-1010K). […] The dye formed was detected at 570 nm (Infinite M1000 pro, Tecan). The measured data were used to calculate the IC50 of the growth inhibition using the DRC (dose response curve). […]

[4] = Caco-2 flux assay for cell permeability; assay type: in vitro ADME; settings: human; Caco-2, basal to apical, 2 hours
Method: The cell permeability of a substance can be investigated by means of in vitro testing in a flux assay using Caco-2 cells [M. D. Troutman and D. R. Thakker, Pharm. […] For this purpose, the cells were cultured for 15-16 days on 24-well filter plates. For the determination of permeation, the respective test substance was applied in a HEPES buffer to the cells either apically (A) or basally (B) and incubated for 2 hours. After 0 hours and after 2 hours, samples were taken from the cis and trans compartments. The samples were separated by HPLC (Agilent 1200, Böblingen, Germany) using reverse phase columns. The HPLC system was coupled via a Turbo Ion Spray Interface to a Triple Quadropol mass spectrometer API 4000 (AB SCIEX Deutschland GmbH, Darmstadt, Germany).
Of critical importance for toxophors which are released intracellularly is the permeability from B to A [Papp (B-A)] and the ratio of Papp (B-A) to Papp (A-B) (efflux ratio): the lower this permeability, the slower the active and passive transport processes of the substance through the monolayer of Caco-2 cells.

Q: With `CC(C)(C)[C@H](c1cc(-c2cc(F)ccc2F)cn1Cc1ccccc1)N(CC[C@H](N)C(=O)NCCC(=O)N[C@H](CCC(=O)O)C(=O)O)C(=O)CO` [Example M3, N-{(2S)-2-Amino-4-[{(1R)-1-[1-benzyl-4-(2,5-difluorophenyl)-1H-pyrrol-2-yl]-2,2-dimethylpropyl}(glycoloyl)amino]butanoyl}-beta-alanyl-D-glutamic acid] as the compound, how does the IC50 [1] read?
A: 174 nM

Q: And the IC50 [2]?
A: 14.6 nM

Q: What about the IC50 [3] of the same compound?
A: 173 nM

Q: And the Papp B→A at 2 h [4]?
A: 0.27 ×10⁻⁶ cm/s
